# Where two headings read alike, the source gives them in different places.
# Legend:
# human DP2 receptor = molecular target: T1, human DP2 receptor (Homo sapiens, UniProt Q9Y5Y4); test: DP2/CRTH2 radioligand binding assay using [3H]PGD2; settings: membranes of HEK293 cells expressing recombinant human DP2
# T1 construct: expressed in transfected cells
# T1 sequence (Q9Y5Y4 1-395): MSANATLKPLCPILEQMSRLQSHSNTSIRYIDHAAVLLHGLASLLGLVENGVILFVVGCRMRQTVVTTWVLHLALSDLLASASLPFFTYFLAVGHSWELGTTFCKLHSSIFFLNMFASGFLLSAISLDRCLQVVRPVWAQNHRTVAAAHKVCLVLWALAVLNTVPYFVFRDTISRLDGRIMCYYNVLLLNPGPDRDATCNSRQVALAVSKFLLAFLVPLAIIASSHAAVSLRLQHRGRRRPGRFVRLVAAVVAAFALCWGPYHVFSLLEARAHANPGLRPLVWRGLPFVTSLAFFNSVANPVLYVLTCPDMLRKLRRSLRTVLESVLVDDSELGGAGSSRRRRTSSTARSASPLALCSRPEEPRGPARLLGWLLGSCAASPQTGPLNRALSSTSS
# Experimental: The ability of a compound to bind to the human DP2 receptor is assessed via a radioligand binding assay using [^3H]PGD2. HEK293 cells stably expressing recombinant human DP2 are resuspended in 10 mM Hepes, 7.4 containing 1 mM DTT, lysed and centrifuged at 75,000×g to pellet the membranes. The membranes are resuspended in 10 mM Hepes, 7.4 containing 1 mM DTT and 10% glycerol to approximately 5 mg protein/ml. Membranes (2-10 μg protein/well) are incubated in 96-well plates with 1 nM [^3H]PGD2 and test compound in Assay Buffer (50 mM Hepes, 10 mM MnCl2, 1 mM EDTA, plus or minus 0.2% human serum albumin, pH 7.4) for 60 minutes at room temperature. The reactions are terminated by rapid filtration through Whatman GF/C glass fibre filter plates. The filter plates were pre-soaked in 0.33% polythylenimine for 30 minutes at room temperature then washed in Wash Buffer (50 mM Hepes, 0.5 M NaCl pH 7.4) prior to harvesting. After harvesting, the filter plates are washed 3 times with 1 ml cold Wash Buffer then dried. Scintillant is then added to the plates and the radioactivity retained on the filters is determined on a Packard TopCount (Perkin Elmer). Specific binding is determined as total radioactive binding minus non-specific binding in the presence of 10 μM PGD2. IC50s were determined using GraphPad prism analysis of drug titration curves.
# human DP1 receptor = molecular target: T2, human DP1 receptor (Homo sapiens, UniProt Q13258); test: DP1 radioligand membrane binding assay using [3H]BWA868C; settings: human platelet membranes; read-out: hDP1
# T2 construct: tissue Biological Specialty Corporation; host or cells: human platelets, membrane preparation
# T2 sequence (Q13258 1-359): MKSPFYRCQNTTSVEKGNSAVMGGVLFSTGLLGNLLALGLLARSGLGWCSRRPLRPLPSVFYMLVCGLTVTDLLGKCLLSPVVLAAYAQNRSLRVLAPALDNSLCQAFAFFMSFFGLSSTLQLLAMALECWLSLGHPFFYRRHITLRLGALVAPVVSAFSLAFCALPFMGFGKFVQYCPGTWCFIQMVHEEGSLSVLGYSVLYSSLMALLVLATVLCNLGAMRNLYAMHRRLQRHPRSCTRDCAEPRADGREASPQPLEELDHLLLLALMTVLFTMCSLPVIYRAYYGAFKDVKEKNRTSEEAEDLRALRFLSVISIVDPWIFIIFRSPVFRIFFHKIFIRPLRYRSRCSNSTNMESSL
# Experimental: The ability of a compound to bind to the human DP1 receptor is evaluated via a radioligand membrane binding assay using the DP1 selective synthetic ligand [^3H]BWA868C. Packed human platelets (Biological Specialty Corporation), are resuspended in 6 volumes of Hepes/HBSS buffer (10 mM Hepes, 1 mM DTT in Hanks Balanced Salt Solution (HBSS)), lysed and centrifuged at 75,000×g to pellet the membranes. Membranes are resuspended in Hepes/HBSS buffer to approximately 12 mg protein/ml. Membranes (20 μg protein/well) are incubated in 96-well plates with 2 nM [^3H]BWA868C and test compound in Assay Buffer (50 mM Hepes, 10 mM MnCl2, 1 mM EDTA, plus or minus 0.2% human serum albumin, pH 7.4) for 60 minutes at room temperature. The reactions are terminated by rapid filtration through Whatman GF/C glass fibre filter plates. The filter plates are pre-soaked in 0.33% polethylenimine for 30 minutes at room temperature then washed in Wash Buffer (50 mM Hepes, 0.5 M NaCl pH 7.4) prior to harvesting. […] Scintillant is then added to the plates and the radioactivity retained on the filters is determined on a Packard TopCount (Perkin Elmer). Specific binding is determined as total radioactive binding minus non-specific binding in the presence of 10 μM BW A868C. IC50 values are determined using GraphPad prism analysis of drug titration curves.
# [1] = plus 0.2% human serum albumin, read-out: hDP2 μM (+HSA)
# [2] = without human serum albumin, read-out: hDP2
Structure (SMILES),IC50 (human DP2 receptor; [1]) [µM],IC50 (human DP2 receptor; [2]) [µM],IC50 (human DP1 receptor) [µM]
"CN(C1CCc2c(CC(=O)O)c3ccccn3c2C1)S(=O)(=O)c1ccc(F)cc1 (stereo not drawn) [Compound 1-1, {3-[(4-Fluoro-benzenesulfonyl)-methyl-amino]-1,2,3,4-tetrahydro-pyrido[1,2-a]indol-10-yl}-acetic acid]",< 0.3,< 0.3,> 1
"CN(C1CCc2c(c3ccccn3c2CC(=O)O)C1)S(=O)(=O)c1ccc(F)cc1 (stereo not drawn) [Compound 2-1, {9-[(4-Fluoro-benzenesulfonyl)-methyl-amino]-7,8,9,10-tetrahydro-pyrido[2,1-a]isoindol-6-yl}-acetic acid]",< 0.3,< 0.3,> 1
